Experimental findings from the supplement of paper PMC6045584 are described below.

± gives the standard deviation of the averaged measurements.

Compound in assay [1]: COc1cc2ncnc(Nc3ccc(F)c(Cl)c3)c2cc1NC(=O)/C=C/CN1CCCCC1
Description: surviving fraction relative to DMSO-only wells; higher = less growth inhibition. As to conditions: exposure time: 5 days. An outline of the steps: (§1)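 Log-phase tumour cell lines, 250–500 cells per well in 384-well plates, received inhibitors at 0.5, 1, 5, 10, 50, 100, 500 and 1000 nM continuously for five days, starting 24 hours after seeding. Viability was quantified with CellTiter-Glo luminescence and normalised to the median of DMSO-only wells to give surviving fraction. Three screens were run per line, and a line stayed in only with replicate Pearson r >0.7 and median Z' >0.3.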

Compound in another assay: Oc1nc(-c2ccc(C(F)(F)F)cc2)nc2c1CSCC2 [XAV-939]
The assay is described as above. The note with it: exposure time: 5 days. An outline of the steps: as §1

For the test system SAOS2 BONE, the surviving fraction worked out at 1.17 ± 0.02 in assay [1] (0.5 nM); 1.14 ± 0.017 in assay [1] (1 nM); 1.14 ± 0.038 in assay [1] (5 nM); 1.13 ± 0.07 in assay [1] (10 nM); 1.1 ± 0.062 in assay [1] (50 nM); 1.13 ± 0.064 in assay [1] (100 nM). For the same test system, the surviving fraction turned out to be 0.762 ± 0.044 in assay [1] (500 nM); 0.513 ± 0.028 in assay [1] (1000 nM); 1.16 ± 0.027 with XAV-939 (0.5 nM); 1.15 ± 0.041 with XAV-939 (1 nM); 1.21 ± 0.022 with XAV-939 (5 nM); 1.28 ± 0.05 with XAV-939 (10 nM). Besides, the surviving fraction was determined as 1.26 ± 0.034 in the assay with XAV-939 (50 nM), 1.25 ± 0.051 with XAV-939 (100 nM), 1.14 ± 0.046 with XAV-939 (500 nM) and 1.07 ± 0.072 in the assay with XAV-939 (1000 nM).
Take CAL51 BREAST: the surviving fraction was determined as 0.985 ± 0.05 in assay [1] (0.5 nM); 1.03 ± 0.076 in assay [1] (1 nM); 1 ± 0.086 in assay [1] (5 nM); 0.968 ± 0.031 in assay [1] (10 nM); 1.03 ± 0.08 in assay [1] (50 nM); 1.02 ± 0.1 in assay [1] (100 nM). The surviving fraction in assay [1] (500 nM) was 0.9793 ± 0.0063; in assay [1] (1000 nM), 0.848 ± 0.027; in the assay with XAV-939 (0.5 nM), 0.967 ± 0.032; in the assay with XAV-939 (1 nM), 1.03 ± 0.046; with XAV-939 (5 nM), 1.02 ± 0.025; with XAV-939 (10 nM), 0.992 ± 0.017. Moreover, the surviving fraction is 1.01 ± 0.049 in the assay with XAV-939 (50 nM), 1.01 ± 0.023 with XAV-939 (100 nM), 0.846 ± 0.033 in the assay with XAV-939 (500 nM) and 0.799 ± 0.089 with XAV-939 (1000 nM).
Regarding C33A CERVIX, the surviving fraction in assay [1] (0.5 nM) was determined as 0.793 ± 0.044; in assay [1] (1 nM), 0.93 ± 0.15; in assay [1] (5 nM), 0.899 ± 0.017; in assay [1] (10 nM) it was 0.802 ± 0.085; in assay [1] (50 nM), 0.517 ± 0.051; in assay [1] (100 nM), 0.428 ± 0.022. Moreover, the surviving fraction was found to be 0.358 ± 0.019 in assay [1] (500 nM); 0.296 ± 0.02 in assay [1] (1000 nM); 0.909 ± 0.039 with XAV-939 (0.5 nM); 0.973 ± 0.1 with XAV-939 (1 nM); 0.981 ± 0.032 with XAV-939 (5 nM); 1.03 ± 0.068 in the assay with XAV-939 (10 nM). The surviving fraction in the assay with XAV-939 (50 nM) amounted to 0.913 ± 0.068; with XAV-939 (100 nM), 0.901 ± 0.048; with XAV-939 (500 nM), 0.835 ± 0.062; in the assay with XAV-939 (1000 nM), 0.755 ± 0.04.
HSSYII SYNOVIAL: the surviving fraction worked out at 0.98 ± 0.031 in assay [1] (0.5 nM); 0.942 ± 0.038 in assay [1] (1 nM); 0.966 ± 0.054 in assay [1] (5 nM); 0.942 ± 0.03 in assay [1] (10 nM); 0.928 ± 0.059 in assay [1] (50 nM); 0.927 ± 0.045 in assay [1] (100 nM). Moreover, the surviving fraction in assay [1] (500 nM) turned out to be 0.715 ± 0.041; in assay [1] (1000 nM) it was 0.495 ± 0.0068; with XAV-939 (0.5 nM), 0.942 ± 0.026; with XAV-939 (1 nM) it was 0.901 ± 0.035; with XAV-939 (5 nM), 0.994 ± 0.043; with XAV-939 (10 nM), 0.976 ± 0.011. The surviving fraction in the assay with XAV-939 (50 nM) is 0.961 ± 0.013; in the assay with XAV-939 (100 nM), 0.938 ± 0.031; in the assay with XAV-939 (500 nM) it was 0.667 ± 0.034; in the assay with XAV-939 (1000 nM) it was 0.617 ± 0.038.
As for HUO3N1 BONE, the surviving fraction in assay [1] (0.5 nM) was determined as 1.03 ± 0.037; in assay [1] (1 nM) it was 0.983 ± 0.057; in assay [1] (5 nM), 1.06 ± 0.065; in assay [1] (10 nM), 1 ± 0.016; in assay [1] (50 nM), 1.07 ± 0.073; in assay [1] (100 nM) it was 1.03 ± 0.059. Also, the surviving fraction in assay [1] (500 nM) was found to be 0.789 ± 0.018; in assay [1] (1000 nM), 0.629 ± 0.032; with XAV-939 (0.5 nM) it was 1.03 ± 0.037; in the assay with XAV-939 (1 nM) it was 1.07 ± 0.12; in the assay with XAV-939 (5 nM), 1.04 ± 0.032; with XAV-939 (10 nM), 1.06 ± 0.048. Also, the surviving fraction in the assay with XAV-939 (50 nM) was found to be 1.09 ± 0.064; in the assay with XAV-939 (100 nM), 1.08 ± 0.034; with XAV-939 (500 nM) it was 0.761 ± 0.043; with XAV-939 (1000 nM) it was 0.759 ± 0.0095.
ZR751 BREAST: the surviving fraction was 1.07 ± 0.11 in assay [1] (0.5 nM); 0.919 ± 0.043 in assay [1] (1 nM); 0.791 ± 0.018 in assay [1] (5 nM); 0.859 ± 0.076 in assay [1] (10 nM); 0.762 ± 0.095 in assay [1] (50 nM); 0.768 ± 0.04 in assay [1] (100 nM). Moreover, the surviving fraction in assay [1] (500 nM) turned out to be 0.625 ± 0.056; in assay [1] (1000 nM), 0.415 ± 0.087; with XAV-939 (0.5 nM), 0.873 ± 0.048; with XAV-939 (1 nM) it was 0.925 ± 0.18; in the assay with XAV-939 (5 nM), 0.869 ± 0.092; with XAV-939 (10 nM), 0.987 ± 0.03. For the same test system, the surviving fraction came to 0.683 ± 0.082 in the assay with XAV-939 (50 nM), 0.762 ± 0.15 with XAV-939 (100 nM), 0.69 ± 0.052 in the assay with XAV-939 (500 nM) and 0.685 ± 0.036 with XAV-939 (1000 nM).
As for BT549 BREAST, the surviving fraction worked out at 0.991 ± 0.049 in assay [1] (0.5 nM); 1.1 ± 0.15 in assay [1] (1 nM); 1.02 ± 0.17 in assay [1] (5 nM); 1.06 ± 0.13 in assay [1] (10 nM); 1 ± 0.037 in assay [1] (50 nM); 0.927 ± 0.14 in assay [1] (100 nM). Moreover, the surviving fraction in assay [1] (500 nM) came out at 0.727 ± 0.058; in assay [1] (1000 nM), 0.473 ± 0.08; in the assay with XAV-939 (0.5 nM), 1.16 ± 0.085; with XAV-939 (1 nM), 1.19 ± 0.079; with XAV-939 (5 nM), 1.03 ± 0.077; with XAV-939 (10 nM), 1.16 ± 0.082. In addition, the surviving fraction was 1.18 ± 0.044 in the assay with XAV-939 (50 nM), 1.08 ± 0.091 in the assay with XAV-939 (100 nM), 0.884 ± 0.014 with XAV-939 (500 nM) and 0.872 ± 0.091 in the assay with XAV-939 (1000 nM).
For the test system JIMT1 BREAST, the surviving fraction in assay [1] (0.5 nM) was found to be 1 ± 0.044; in assay [1] (1 nM), 0.989 ± 0.031; in assay [1] (5 nM), 0.91883 ± 0.00029; in assay [1] (10 nM), 0.862 ± 0.012; in assay [1] (50 nM), 0.653 ± 0.013; in assay [1] (100 nM), 0.667 ± 0.016. The surviving fraction in assay [1] (500 nM) is 0.545 ± 0.019; in assay [1] (1000 nM) it was 0.362 ± 0.025; in the assay with XAV-939 (0.5 nM) it was 1 ± 0.013; in the assay with XAV-939 (1 nM) it was 1.03 ± 0.027; with XAV-939 (5 nM), 0.9983 ± 0.008; with XAV-939 (10 nM), 0.995 ± 0.031. The surviving fraction with XAV-939 (50 nM) was 1 ± 0.05; in the assay with XAV-939 (100 nM), 1.04 ± 0.025; with XAV-939 (500 nM), 0.934 ± 0.032; with XAV-939 (1000 nM), 0.943 ± 0.0033.
